Experimental data published in US12466806B2, “2-substituted imidazolidine derivative containing aryl bipyridyloxy structure and preparation method and use thereof” (NANTONG UNIVERSITY, priority 2020, dated 2025).

The compounds below were run on Mythimna separata (assay: Screening of insecticidal activity against Mythimna separata, leaf soaking method (IRAC)). Conditions: concentration 500 μg/mL; 3rd instar larvae on soaked corn leaves; investigated after 48 h; 24-27° C.
Type: in vivo
Experimental: Screening of Insecticidal Activity of Compounds Against Mythimna separate
Adopting the leaf soaking method proposed by the International Resistance Action Committee (IRAC): the test target is Mythimna separata, e.g. the appropriate amount of corn leaves was fully infiltrated in the prepared liquid and then dried naturally in the shade, and placed in a petri dish with a filter paper. The 3rd instar larvas of Mythimna separata were added 10 heads per dish, cultured in the observation room at 24-27° C., and the results were investigated after 48 h. Using a brush to touch the body of the Mythimna separata, if there is no response, it is regarded as a dead insect. The test concentration is 500 μg/mL (the other concentrations of the drug solution can be obtained by diluting the drug solution with the concentration of 500 μg/mL).

Compound	death rate % Mythimna separata [%]
O=[N+]([O-])/N=C1\NCCN1Cc1ccc(Oc2ccc(F)cc2)nc1 [I a]	100
O=[N+]([O-])/N=C1\NCCN1Cc1ccc(Oc2ccc(Cl)cc2)nc1 [I b]	100
O=[N+]([O-])/N=C1\NCCN1Cc1ccc(Oc2ccc(Br)cc2)nc1 [I c]	80
O=[N+]([O-])/N=C1\NCCN1Cc1ccc(Oc2ccccc2)nc1 [I d]	100
O=[N+]([O-])/N=C1\NCCN1Cc1ccc(Oc2ccc(Cl)cc2Cl)nc1 [I e]	100
O=[N+]([O-])/N=C1\NCCN1Cc1ccc(Oc2cccc(F)c2F)nc1 [I f]	100
